Assay results reported in BindingDB's records for doi:10.1021/jm00128a025 (Roche Research Center, 1989).

Assays:
[1] = Inhibition of platelet-activating factor receptor binding activity in dog platelets using [3H]-PAF as radioligand.
[2] = as above; remark: listed apart in the source

Structure (SMILES) | IC50 [1] | IC50 [2]
O=C(NCCCCc1cccnc1)c1ccc(-c2cccc(F)c2)c(F)c1 | 2100 nM | –
COc1ccc(-c2ccc(C(=O)N[C@H](C)CCCc3cccnc3)cc2[N+](=O)[O-])cc1OC | 200 nM | –
COc1ccc(-c2ccc(C(=O)NCCCCc3cccnc3)cc2Br)cc1OC | 220 nM | –
O=C(NCCCCc1cccnc1)c1ccc(-c2cccc(O)c2)cc1 | 300 nM | –
O=C(NCCCCc1cccnc1)c1ccc(-c2cccc(OC3=CC=CC=CC3)c2)cc1 | – | 700 nM
COc1ccc(-c2ccc(C(=O)NCCCCc3cccnc3)cc2OC)cc1OC | 300 nM | –
COc1ccc(-c2ccc(C(=O)NCCCCc3cccnc3)cc2)cc1OC | 400 nM | –
Cc1cccc(-c2ccc(C(=O)NCCCCc3cccnc3)cc2)c1 | 500 nM | –
COc1cccc(-c2ccc(C(=O)NCCCCc3cccnc3)cc2)c1 | 280 nM | –
Cc1ccc(-c2ccc(C(=O)NCCCCc3cccnc3)cc2)cc1C | 200 nM | –

More lines, now with the values ahead:

IC50 [1] | IC50 [2] | Structure (SMILES)
50 nM | – | C[C@H](CCCc1cccnc1)NC(=O)c1ccc(-c2ccccc2)c(-c2ccccc2)c1
125 nM | – | COc1ccc(-c2ccc(C(=O)NCCCCc3cccnc3)cc2-c2ccc(OC)cc2)cc1
4 nM | – | CCc1cc(C(=O)N[C@H](C)CCCc2cccnc2)ccc1-c1ccc(OC)c(OC)c1
200 nM | – | COc1ccc(-c2ccc(C(=O)NCCCCc3cccnc3)cc2[N+](=O)[O-])cc1OC
50 nM | – | CCCc1cc(C(=O)N[C@H](C)CCCc2cccnc2)ccc1-c1ccc(OC)c(OC)c1
60 nM | – | COc1ccc(-c2ccc(C(=S)N[C@H](C)CCCc3cccnc3)cc2)cc1OC
80 nM | – | C=CCc1cc(C(=O)N[C@H](C)CCCc2cccnc2)ccc1-c1ccc(OC)c(OC)c1
180 nM | – | COc1ccc(-c2ccc(C(=O)N[C@H](C)CCCc3cccnc3)cc2Br)cc1OC
20 nM | – | COc1cccc(-c2ccc(C(=O)N[C@H](C)CCCc3cccnc3)cc2)c1
